Tests used:
[1] = biological target: human complement Factor B protein (Homo sapiens (Human), UniProt P00751); test: Complement human Factor B protein binding test (SPR method); details: Biacore 8K, 1:1 Binding Kinetics Model
Experimental: Experimental purpose: To detect the kinetic constants and affinity of the binding between the test compounds and human complement Factor B using the SPR method.
1-Ethyl-3-(3-dimethylaminopropyl) carbodiimide hydrochloride (EDC) and N-hydroxysulfosuccinimide sodium salt (NHS) were mixed in a 1:1 ratio, and complement Factor B was diluted to 20 μg/mL in acetic acid solution with a pH of 5.5. Using a biomacromolecule interaction analyzer Biacore 8K, the programmed settings were set to add the EDC/NHS, the FB protein solution and the 1 M ethanolamine-hydrochloric acid solution to the detection plate. The detection plate was placed in the machine detection chamber, and the EDC/NHS mixture, the complement Factor B protein solution and the 1 M ethanolamine-hydrochloric acid solution were sequentially injected onto the surface of the CM5 chip according to the procedure for chip activation, ligand coupling and deactivation. The flow cell 1 of each channel was used as a reference channel for surface activation and deactivation only, without injection of complement Factor B protein solution. All sample stock solutions were diluted with running buffer (PBST), and all samples were serially diluted 2 times in duplicate for 6 points. The prepared sample was transferred to the detection plate according to the program settings and the detection plate was placed in the sample chamber of Biacore 8K. The detection program was run, and the samples were injected into each channel of the chip sequentially according to the program, with a binding time of 120 s, a dissociation time of 600 s and a flow rate of 30 μL/min. The data were analyzed using Biacore Insight Evaluation Software: The data were fitted using a 1:1 Binding Kinetics Model to obtain the binding rate constant (kon), dissociation rate constant (koff) and dissociation equilibrium constant (KD) for binding of each test sample to complement Factor B protein.

[2] = Plasma protein binding rate test (equilibrium dialysis), mouse; type: in vitro ADME, CD-1 mice; details: 2 μM, equilibrium dialysis 37° C. 4 hours, CD-1 mouse plasma
Experimental: (§1) Experimental purpose: To evaluate the protein binding rate of the compounds of the present disclosure in the plasma of CD-1 mice, SD rats, beagle dogs, cynomolgus monkeys and humans using equilibrium dialysis.
(§2) The test compounds were diluted with dialysis buffer into the plasma of the above five species to prepare samples with a final concentration of 2 μM. The samples were then added to a 96-well equilibrium dialysis device and dialyzed using phosphate buffered saline solution at 37° C. for 4 hours. Warfarin was used as a control compound in the experiment. The concentration of the test compounds and warfarin in the plasma and buffer was determined using LC-MS/MS. The free fraction of the compound was calculated by the following formula: PPB_Unbound (%)=100*FC/TC, where FC is the concentration of the compound at the buffer end of the dialysis plate; TC is the concentration of the compound at the plasma end of the dialysis plate; To is the concentration of the compound in the plasma sample at time zero.

[3] = Plasma protein binding rate test (equilibrium dialysis), rat; type: in vitro ADME, SD rats; details: 2 μM, equilibrium dialysis 37° C. 4 hours, SD rat plasma
Experimental: as §1, §2

[4] = Plasma protein binding rate test (equilibrium dialysis), dog; type: in vitro ADME, beagle dogs; details: 2 μM, equilibrium dialysis 37° C. 4 hours, beagle dog plasma
Experimental: as §1, §2

[5] = Plasma protein binding rate test (equilibrium dialysis), cynomolgus monkey; type: in vitro ADME, cynomolgus monkeys; details: 2 μM, equilibrium dialysis 37° C. 4 hours
Experimental: as §1, §2

[6] = Plasma protein binding rate test (equilibrium dialysis), human; type: in vitro ADME; details: 2 μM, equilibrium dialysis 37° C. 4 hours
Experimental: as §1, §2

[7] = In vitro liver microsomal stability test; type: in vitro ADME, human; details: 1 μM compound, 0.5 mg/mL liver microsomes, NADPH
Experimental: Liver microsomes: purchased from Corning or Xenotech, stored in a −80° C. refrigerator; reduced nicotinamide adenine dinucleotide phosphate (NADPH), supplier: Chem-Impex International, Cat. No.: 00616; control compounds: testosterone, diclofenac, propafenone.
Stock solution: 10 mM DMSO solution; preparation of working concentration: The stock solution was diluted to 100 μM using 100% acetonitrile (organic phase content: 99% acetonitrile, 1% DMSO).
Two 96-well incubation plates were prepared and named as T60 incubation plate and NCF60 incubation plate.
445 μL of microsomal working solution (liver microsomal protein concentration of 0.56 mg/mL) was added to both the T60 incubation plate and the NCF60 incubation plate. The two incubation plates were pre-incubated in a 37° C. water bath for approximately 10 minutes.
After pre-incubation was completed, 5 μL of the test compound or control compound working solution was added to both the T60 incubation plate and the NCF60 incubation plate and mixed well. 50 μL of potassium phosphate buffer per well was added to the NCF60 incubation plate to initiate the reaction. 180 μL of termination solution (acetonitrile solution containing 200 ng/mL tolbutamide and 200 ng/mL labetalol) and 6 μL of NADPH regeneration system working solution were added to a TO termination plate. […]

Caco-2 cells = test: In vitro Caco-2 cell permeability test; type: in vitro ADME; details: Caco-2, 2 μM, 120 minutes; for Apparent permeability coefficient: pH 7.40, direction not given; for Efflux ratio: Papp(BA)/Papp(AB)
Experimental: Cell culture was performed using MEM (minimum essential medium) supplemented with 2 mM L-glutamine, 10% fetal bovine serum (FBS), 100 U/mL penicillin-G and 100 μg/mL streptomycin. Cell culture conditions were 37±1° C., 5% CO2 and saturated humidity. When the cells reached a density of 80 to 90%, trypsin (0.05%, w/v)/EDTA (0.02%, w/v) digestion solution was added to digest the cells before seeding the plate. Cells were seeded in BD Falcon Transwell-96 well plates at a seeding density of 1×10^5 cells/cm^2. The cells were incubated in a carbon dioxide incubator for 22 days and then used for transport experiments.
Hank's balanced salt buffer (pH 7.40±0.05) containing 10 mM HEPES was used as the transport buffer in this project. The bidirectional transport of the test compound and the positive drug digoxin was tested at a concentration of 2 μM, with two parallel samples each, and the transport of fenoterol and propranolol from the apical to the basal end (A-B) was tested. The concentration of DMSO in the incubation system was controlled to 1% or less. After loading the sample, the cell plate was incubated at 37±1° C., 5% CO2 and saturated humidity for 120 minutes. All samples were vortexed and centrifuged at 3220 rpm and 20° C. for 20 minutes. The control sample and test sample were diluted in a 1:1 (v/v) ratio with ultrapure water and stored at 4° C., and the analytical tests were performed by liquid chromatography tandem mass spectrometry (LC/MS/MS).
In this study, the liquid chromatography tandem mass spectrometry (LC/MS/MS) method was used to semi-quantitatively analyze the peak area ratios of the test compounds and control samples fenoterol, propranolol and digoxin to the internal standard in the starting solution, receiving solution and administration well supernatant. The apparent permeability coefficient (Papp, cm/s), efflux rate and recovery rate were calculated using the following formula: • (1) Papp=(dCr/dt)×Vr/(A×C0), dCr/dt is the cumulative concentration of the compound at the receiving end per unit time (μM/s); Vr is the volume of the solution at the receiving end (0.075 mL and 0.250 mL for the solution at the apical and basal ends, respectively); A is the relative surface area of the cell monolayer (0.0804 cm^2); C0 is the starting concentration (nM) of the test sample at the administration end or the peak area ratio of the control sample. • (2) Efflux ratio=Papp(BA)/Papp(AB) • (3) Recovery rate (%)=100×[(Vr×Cr)+(Vd×Cd)]/(Vd×C0), C0 is the starting concentration (nM) of the test sample at the administration end or the peak area ratio of the control sample; Vd is the volume at the administration end (0.075 mL on the apical side and 0.250 mL on the basal side); Cd and Cr are the final concentration (nM) of the test sample or the peak area ratio of the control sample at the administration and receiving ends, respectively.

[8] = Pharmacokinetic study in rats; type: in vivo, Male SD rats; details: rat; for F: PO 10 mpk vs IV 1 mpk
Experimental: Male SD rats (6 to 8 weeks old, weighing 200 to 300 g) were selected.
Injection administration (IV) was carried out at a dose of 1 mpk and a concentration of 0.20 mg/mL with a vehicle of 20% PEG400/10% solutol/70% water. Oral administration (PO) was carried out at a dose of 10 mpk and a concentration of 1 mg/mL with a vehicle of 20% PEG400/10% solutol/70% water.
Sample collection: 0.03 mL of blood samples were collected by puncture of the saphenous vein in experimental animals at each time point, and the actual blood collection time was recorded.
All blood samples were added to commercial 1.5 mL EDTA-K2 anticoagulant tubes. After blood sample collection, DDV was added into the plasma matrix as a stabilizer, wherein the ratio of plasma to Dichlorvos (DDV) solution was 40:1. The DDV solution was a 40 mM DDV solution in acetonitrile/water (1:1). Within half an hour, the mixture was centrifuged at 4° C. and 3000 g for 10 minutes. The supernatant plasma was aspirated, quickly placed in dry ice and stored in a −80° C. refrigerator for LC-MS/MS analysis.
A non-compartmental model in Phoenix WinNonlin 6.3 pharmacokinetic software was used to process the plasma concentration data. The pharmacokinetic parameters were calculated using the linear-log trapezoidal method. C0: concentration needed immediately after intravenous injection; Cmax: the highest plasma drug concentration after administration; Tmax: time needed to reach drug peak concentration after administration; T1/2: time needed for plasma drug concentration to decrease by half; Vdss: apparent volume of distribution, refers to the proportional constant between the amount of drug in the body and the plasma drug concentration when the drug reaches dynamic equilibrium in the body. Cl: clearance rate, refers to the apparent volume of distribution of the drug cleared from the body per unit time; AUC0-last: area under the drug time curve, refers to the area surrounded by the plasma drug concentration curve against the time axis; F: bioavailability.

Sequence of human complement Factor B protein (P00751 26-764): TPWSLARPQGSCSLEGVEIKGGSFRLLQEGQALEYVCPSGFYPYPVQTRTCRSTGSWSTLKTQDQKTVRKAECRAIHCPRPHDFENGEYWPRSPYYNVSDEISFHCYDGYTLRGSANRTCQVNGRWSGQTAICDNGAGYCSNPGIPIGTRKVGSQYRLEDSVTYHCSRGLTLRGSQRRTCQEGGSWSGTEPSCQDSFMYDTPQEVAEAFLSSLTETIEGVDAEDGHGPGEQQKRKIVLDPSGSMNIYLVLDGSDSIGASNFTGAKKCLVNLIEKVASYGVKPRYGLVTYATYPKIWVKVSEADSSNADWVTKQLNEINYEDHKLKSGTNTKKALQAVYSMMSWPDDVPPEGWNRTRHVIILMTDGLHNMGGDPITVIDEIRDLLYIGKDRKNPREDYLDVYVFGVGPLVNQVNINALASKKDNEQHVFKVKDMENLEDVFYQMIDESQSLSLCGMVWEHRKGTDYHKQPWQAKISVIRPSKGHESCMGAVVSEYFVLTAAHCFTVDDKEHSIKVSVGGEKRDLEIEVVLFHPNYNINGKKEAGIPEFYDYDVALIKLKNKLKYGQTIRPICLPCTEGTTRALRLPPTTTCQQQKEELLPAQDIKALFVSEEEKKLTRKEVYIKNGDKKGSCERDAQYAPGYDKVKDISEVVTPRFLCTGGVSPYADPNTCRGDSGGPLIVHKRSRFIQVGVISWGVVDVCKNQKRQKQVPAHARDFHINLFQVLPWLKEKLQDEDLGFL

| Structure (SMILES) | Kd [1] | Plasma protein binding (PPB) unbound, Mouse (M) [2] | Plasma protein binding (PPB) unbound, Rat (R) [3] | Plasma protein binding (PPB) unbound, Dog (D) [4] | Plasma protein binding (PPB) unbound, Cynomolgus monkey (C) [5] | Plasma protein binding (PPB) unbound, Human (H) [6] | Human liver microsomal stability CLint [7] | Apparent permeability coefficient (Caco-2 cells) | Efflux ratio (Caco-2 cells) | AUC0-last ([8]; IV 1 mpk) | C0 ([8]; IV 1 mpk) | Cl ([8]; IV 1 mpk) | T1/2 ([8]; IV 1 mpk) | Vdss ([8]; IV 1 mpk) | AUC0-last ([8]; PO 10 mpk) | Cmax ([8]; PO 10 mpk) | T1/2 ([8]; PO 10 mpk) | Tmax ([8]; PO 10 mpk) | F [8] |
| --- | --- | --- | --- | --- | --- | --- | --- | --- | --- | --- | --- | --- | --- | --- | --- | --- | --- | --- | --- |
| COc1cc(C)c2[nH]ccc2c1CN1[C@@H]2CC[C@@]1(c1ccc(C(=O)O)cc1)C[C@H](C1CC1)C2 [Compound 3A] | < 100 nM |  |  |  |  |  |  |  |  |  |  |  |  |  |  |  |  |  |  |
| COc1cc(C)c2[nH]ccc2c1CN1[C@@H]2CC[C@@]1(c1ccc(C(=O)O)cc1)C[C@@H](SC)C2 [Compound 2A] | < 100 nM |  |  |  |  |  |  |  |  |  |  |  |  |  |  |  |  |  |  |
| CCSC1CC2CCC(c3ccc(C(=O)O)cc3)(C1)N2Cc1c(OC)cc(C)c2[nH]ccc12.O=CO (single isomer, unassigned) [Compound 1B] | < 100 nM | 12.5% | 11.6% | 16.2% | 17.4% | 13.3% | <15 mL/min/kg | 1.19 10^−6 cm/s | 26.1 |  |  |  |  |  |  |  |  |  |  |
| COc1cc(C)c2[nH]ccc2c1CN1C2CCC1(c1ccc(C(=O)O)cc1)CC(C1CC1)C2 (single isomer, unassigned) [Compound 3B] | < 100 nM | 19.1% | 14.1% | 25.6% | 28.5% | 15.2% | <15 mL/min/kg | 1.21 10^−6 cm/s | 22.6 | 10.573 µM·h | 6.2 µM | 3.5 mL/min/kg | 2.06 h | 0.53 L/kg | 33.029 µM·h | 7.83 µM | 9.90 h | 0.50 h | 31.2% |
| COc1cc(C)c2[nH]ccc2c1CN1C2CCC1(c1ccc(C(=O)O)cc1)CC(SC)C2.O=CO (single isomer, unassigned) [Compound 2B] | < 100 nM | 22.2% | 15.1% | 31.7% | 25.6% | 21.7% |  | 1.56 10^−6 cm/s | 15.8 | 5.645 µM·h | 5.81 µM | 6.5 mL/min/kg | 1.16 h | 0.55 L/kg | 28.425 µM·h | 9.03 µM | 11.7 h | 0.50 h | 50.4% |
| CCS[C@H]1C[C@H]2CC[C@@](c3ccc(C(=O)O)cc3)(C1)N2Cc1c(OC)cc(C)c2[nH]ccc12 [Compound 1A] | < 100 nM |  |  |  |  |  |  |  |  |  |  |  |  |  |  |  |  |  |  |
